Measured values reported in ChEMBL document CHEMBL1126489, “N1-sterically hindered 2H-imidazol-2-one angiotensin II receptor antagonists: The conversion of surmountable antagonists to insurmountable antagonists” (Bioorg Med Chem Lett, 1993).

Target: T1, Angiotensin II receptor (Rattus norvegicus, UniProt P29089+P25095+P35351)
T1 sequence (P29089 whole entry): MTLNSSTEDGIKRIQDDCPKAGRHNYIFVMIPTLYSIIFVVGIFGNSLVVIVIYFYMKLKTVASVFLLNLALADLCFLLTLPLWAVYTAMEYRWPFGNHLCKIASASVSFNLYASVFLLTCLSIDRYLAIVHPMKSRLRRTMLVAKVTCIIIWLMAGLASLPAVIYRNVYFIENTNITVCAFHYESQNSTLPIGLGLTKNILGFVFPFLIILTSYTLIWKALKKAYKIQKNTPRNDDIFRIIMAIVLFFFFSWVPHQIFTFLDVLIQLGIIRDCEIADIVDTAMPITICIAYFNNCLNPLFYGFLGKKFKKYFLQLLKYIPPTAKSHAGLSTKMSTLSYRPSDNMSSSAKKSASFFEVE
T1 sequence (P25095 whole entry): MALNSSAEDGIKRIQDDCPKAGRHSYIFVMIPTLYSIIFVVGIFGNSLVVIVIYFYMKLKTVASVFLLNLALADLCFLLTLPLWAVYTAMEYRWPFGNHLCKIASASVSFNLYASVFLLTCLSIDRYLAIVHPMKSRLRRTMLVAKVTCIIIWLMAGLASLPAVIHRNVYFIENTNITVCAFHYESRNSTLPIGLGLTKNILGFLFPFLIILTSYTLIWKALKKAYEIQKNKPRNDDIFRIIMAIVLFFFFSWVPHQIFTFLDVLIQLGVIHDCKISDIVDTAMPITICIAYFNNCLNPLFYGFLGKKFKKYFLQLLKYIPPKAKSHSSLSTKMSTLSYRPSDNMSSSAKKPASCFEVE
T1 sequence (P35351 whole entry): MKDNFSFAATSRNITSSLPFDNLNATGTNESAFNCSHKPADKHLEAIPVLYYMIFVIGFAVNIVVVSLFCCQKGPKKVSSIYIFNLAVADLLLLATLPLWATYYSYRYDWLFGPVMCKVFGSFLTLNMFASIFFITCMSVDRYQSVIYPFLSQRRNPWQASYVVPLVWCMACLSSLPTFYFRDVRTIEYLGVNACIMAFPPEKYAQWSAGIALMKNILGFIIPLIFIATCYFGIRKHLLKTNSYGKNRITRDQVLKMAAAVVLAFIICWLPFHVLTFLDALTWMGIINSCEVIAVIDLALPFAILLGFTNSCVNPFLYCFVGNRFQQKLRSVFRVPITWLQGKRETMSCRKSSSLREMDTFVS
Experiment: Inhibition of [125I]-AII binding to Angiotensin II receptor of rat uterine membrane

IC50 [nM]	SMILES
9.4	CCCCc1cn(-c2ccccc2C)c(=O)n1Cc1ccc(-c2ccccc2-c2nn[nH]n2)nc1
19	CCCCc1cn(-c2ccccc2C(C)(C)C)c(=O)n1Cc1ccc(-c2ccccc2-c2nn[nH]n2)nc1
6.5	CCCCc1cn(CCCC)c(=O)n1Cc1ccc(-c2ccccc2-c2nn[nH]n2)nc1 [SC-52892]
5	CCCCc1cn(-c2c(C)cccc2C)c(=O)n1Cc1ccc(-c2ccccc2-c2nn[nH]n2)nc1
4.5	CCCCc1cn(-c2ccccc2CC)c(=O)n1Cc1ccc(-c2ccccc2-c2nn[nH]n2)nc1
5	CCCCc1cn(-c2c(CC)cccc2CC)c(=O)n1Cc1ccc(-c2ccccc2-c2nn[nH]n2)nc1

The remaining lines, values behind:

SMILES	IC50 [nM]
CCCCc1nc(CCCC)n(Cc2ccc(-c3ccccc3-c3nn[nH]n3)cc2)n1	5.6
CCCCc1cn(-c2ccccc2C(C)C)c(=O)n1Cc1ccc(-c2ccccc2-c2nn[nH]n2)nc1	14
CCCCc1cn(-c2c(C(C)C)cccc2C(C)C)c(=O)n1Cc1ccc(-c2ccccc2-c2nn[nH]n2)nc1	34
CCCCc1cn(-c2ccccc2)c(=O)n1Cc1ccc(-c2ccccc2-c2nn[nH]n2)nc1	45
CCCCc1cn([C@H]2[C@H](C)CCC[C@@H]2C)c(=O)n1Cc1ccc(-c2ccccc2-c2nn[nH]n2)nc1 [SC-55634]	4.9
CCCCC1=NC2(CCCC2)C(=O)N1Cc1ccc(-c2ccccc2-c2nnn[nH]2)cc1 [IRBESARTAN]	1.3
CCCCc1cn(CCCC)c(=O)n1Cc1ccc(-c2ccccc2-c2nn[nH]n2)cc1 [SC-51895]	12
